How the values were obtained:
HCT-116 = assay: Antiproliferative activity against human HCT-116 cells incubated for 48 hrs by MTT assay; format: functional, cell-based; settings: HCT-116, 48 h
B16-F10 [1] = assay: Antiproliferative activity against mouse B16-F10 cells incubated for 48 hrs by MTT assay; format: functional, cell-based; settings: B16-F10, 48 h
HepG2 = assay: Antiproliferative activity against human HepG2 cells incubated for 48 hrs by MTT assay; format: functional, cell-based; settings: HepG2, 48 h
B16-F10 [2] = assay: Inhibition of colony formation in mouse B16-F10 cells at 50 uM incubated for 24 hrs and subsequent replacement of medium without compound measured after 10 to 14 days by crystal violet staining based assay relative to control; format: functional
B16-F10 [3] = assay: Inhibition of cell migration in mouse B16-F10 cells assessed as wound area ratio at 50 nM incubated for 24 hrs by wound healing assay relative to control; format: functional
Tubulin = Tubulin (Sus scrofa, UniProt P02554+P02550); assay: Inhibition of tubulin polymerization of pig brain microtubules by spectroscopic analysis; format: tissue-based
B16-F10 [4] = assay: Inhibition of tubulin polymerization in mouse B16-F10 cells assessed as disruption of microtubule network incubated for 6 hrs by fluorescence microscopy; format: cell-based; settings: dose 10-50 nM
B16-F10 [5] = assay: Inhibition of tubulin polymerization in mouse B16-F10 cells assessed as loss of cellular structure incubated for 6 hrs by fluorescence microscopy; format: cell-based; settings: dose 10-50 nM
B16-F10 [6] = assay: Induction of cell cycle arrest in mouse B16-F10 cells assessed as accumulation at G1 phase at 10 nM incubated for 24 hrs by PI staining based flow cytometry (reference value: 52.77 %); format: functional
B16-F10 [7] = assay: Induction of cell cycle arrest in mouse B16-F10 cells assessed as accumulation at S phase at 10 nM incubated for 24 hrs by PI staining based flow cytometry (reference value: 21.79 %); format: functional
B16-F10 [8] = assay: Induction of cell cycle arrest in mouse B16-F10 cells assessed as accumulation at G1 phase at 25 nM incubated for 24 hrs by PI staining based flow cytometry (reference value: 52.77 %); format: functional
B16-F10 [9] = assay: Induction of cell cycle arrest in mouse B16-F10 cells assessed as accumulation at S phase at 25 nM incubated for 24 hrs by PI staining based flow cytometry (reference value: 21.79 %); format: functional
B16-F10 [10] = assay: Induction of cell cycle arrest in mouse B16-F10 cells assessed as accumulation at G2 phase at 25 nM incubated for 24 hrs by PI staining based flow cytometry (reference value: 23.04 %); format: functional
B16-F10 [11] = assay: Induction of cell cycle arrest in mouse B16-F10 cells assessed as accumulation at G1 phase at 50 nM incubated for 24 hrs by PI staining based flow cytometry (reference value: 52.77 %); format: functional
B16-F10 [12] = assay: Induction of cell cycle arrest in mouse B16-F10 cells assessed as accumulation at S phase at 50 nM incubated for 24 hrs by PI staining based flow cytometry (reference value: 21.79 %); format: functional
B16-F10 [13] = assay: Induction of cell cycle arrest in mouse B16-F10 cells assessed as accumulation at G2 phase at 50 nM incubated for 24 hrs by PI staining based flow cytometry (reference value: 23.04 %); format: functional
B16-F10 [14] = assay: Induction of apoptosis in mouse B16-F10 cells assessed as viable cells at 10 nM incubated for 48 hrs by annexinV-FITC/PI staining based flow cytometry (reference value: 93.6 %); format: functional; settings: read-out: Activity
B16-F10 [15] = assay: Induction of apoptosis in mouse B16-F10 cells assessed as late apoptotic cells at 10 nM incubated for 48 hrs by annexinV-FITC/PI staining based flow cytometry (reference value: 2.06 %); format: functional
B16-F10 [16] = assay: Induction of apoptosis in mouse B16-F10 cells assessed as viable cells at 25 nM incubated for 48 hrs by annexinV-FITC/PI staining based flow cytometry (reference value: 93.6 %); format: functional; settings: read-out: Activity
B16-F10 [17] = assay: Induction of apoptosis in mouse B16-F10 cells assessed as early apoptotic cells at 25 nM incubated for 48 hrs by annexinV-FITC/PI staining based flow cytometry (reference value: 4.25 %); format: functional
B16-F10 [18] = assay: Induction of apoptosis in mouse B16-F10 cells assessed as necrotic cells at 25 nM incubated for 48 hrs by annexinV-FITC/PI staining based flow cytometry (reference value: 0.064 %); format: functional
B16-F10 [19] = assay: Induction of apoptosis in mouse B16-F10 cells assessed as early apoptotic cells at 50 nM incubated for 48 hrs by annexinV-FITC/PI staining based flow cytometry (reference value: 4.25 %); format: functional
B16-F10 [20] = assay: Induction of apoptosis in mouse B16-F10 cells assessed as late apoptotic cells at 50 nM incubated for 48 hrs by annexinV-FITC/PI staining based flow cytometry (reference value: 2.06 %); format: functional
B16-F10 [21] = assay: Induction of apoptosis in mouse B16-F10 cells assessed as necrotic cells at 50 nM incubated for 48 hrs by annexinV-FITC/PI staining based flow cytometry (reference value: 0.064 %); format: functional
[22] = Toxicity in C57 mouse allografted with mouse B16-F10 cells assessed as body weight loss at 10 mg/kg, ip administered consecutively for 14 days; format: organism-based; settings: in vivo, 336 h, time 14 day
[23] = Toxicity in C57 mouse allografted with mouse B16-F10 cells assessed as body weight loss at 10 mg/kg, ip administered consecutively for 14 days in presence of NP-19; format: organism-based; settings: in vivo, 336 h, time 14 day
[24] = Toxicity in C57 mouse allografted with mouse B16-F10 cells assessed as pathological damage in heart at 10 mg/kg, ip administered consecutively for 14 days by H and E staining based analysis; format: organism-based; settings: in vivo, 336 h, time 14 day
[25] = Toxicity in C57 mouse allografted with mouse B16-F10 cells assessed as pathological damage in liver at 10 mg/kg, ip administered consecutively for 14 days by H and E staining based analysis; format: organism-based; settings: in vivo, 336 h, time 14 day
[26] = Toxicity in C57 mouse allografted with mouse B16-F10 cells assessed as pathological damage in kidney at 10 mg/kg, ip administered consecutively for 14 days by H and E staining based analysis; format: organism-based; settings: in vivo, 336 h, time 14 day
B16-F10 [27] = assay: Immunomodulatory activity in mouse B16-F10 cells allografted in C57 mouse assessed as decrease in PD-L1 level at 10 mg/kg, ip administered consecutively for 14 days relative to control; format: functional; set-up: scale not given: the % may be the effect or the level left; settings: time 14 day
B16-F10 [28] = assay: Immunomodulatory activity in mouse B16-F10 cells allografted in C57 mouse assessed as increase in CD3-positive CD4-positive cells at 10 mg/kg, ip administered consecutively for 14 days in presence of NP-19 (reference value: 8.35 %); format: functional; settings: time 14 day
B16-F10 [29] = assay: Immunomodulatory activity in mouse B16-F10 cells allografted in C57 mouse assessed as increase in CD3-positive CD8-positive cells at 10 mg/kg, ip administered consecutively for 14 days (reference value: 6.66 %); format: functional; settings: time 14 day
B16-F10 [30] = assay: Immunomodulatory activity in mouse B16-F10 cells allografted in C57 mouse assessed as increase in CD3-positive CD8-positive cells at 10 mg/kg, ip administered consecutively for 14 days in presence of NP-19 (reference value: 6.66 %); format: functional; settings: time 14 day
HeLa = assay: cells; settings: Homo sapiens, 48 h
Description: Antiproliferative activity against human HeLa cells incubated for 48 hrs by MTT assay

`COc1ccc2c(c1F)Cc1ccccc1N2C(=O)c1cc(OC)c(OC)c(OC)c1` showed an IC50 (HCT-116) of 0.023 µM, an IC50 (B16-F10 [1]) of 0.02 µM and an IC50 (HepG2) of 0.041 µM. It also gave an inhibition at 50 µM (B16-F10 [2]) of roughly 100%, a Ratio (B16-F10 [3]) of 7.2% and an IC50 (Tubulin) of 1.5 µM. For the same compound, the inhibition (B16-F10 [4]) was “Dose-Dependent Effect”, the inhibition (B16-F10 [5]) was “Dose-Dependent Effect” and the Activity (B16-F10 [6]) was 50.88%. The Activity (B16-F10 [7]) was 22.85%, the Activity (B16-F10 [8]) was 16.55% and the Activity (B16-F10 [9]) was 38.12%. For the same compound, the Activity (B16-F10 [10]) was 43.79%, the Activity (B16-F10 [11]) was 3.24% and the Activity (B16-F10 [12]) was 24.31%. The Activity (B16-F10 [13]) was 71.11%, the viability at 0.01 µM (B16-F10 [14]) was 91% and the Activity (B16-F10 [15]) was 3.17%. For the same compound, the viability at 0.025 µM (B16-F10 [16]) was 70.4%, the Activity (B16-F10 [17]) was 22.7% and the Activity (B16-F10 [18]) was 0.268%. The Activity (B16-F10 [19]) was 36.8%, the Activity (B16-F10 [20]) was 13.4% and the Activity (B16-F10 [21]) was 0.61%. The Activity [22] was “Non-Toxic”, the Activity [23] was “Non-Toxic” and the Activity [24] was “Non-Toxic”. The Activity [25] was “Non-Toxic”, the Activity [26] was “Non-Toxic” and the Activity (B16-F10 [27]) was roughly 10%. It also gave an Activity (B16-F10 [28]) of 26.3%, an Activity (B16-F10 [29]) of 8.17% and an Activity (B16-F10 [30]) of 19.5%. It also gave an IC50 (HeLa) of 0.037 µM.

— ChEMBL document CHEMBL5325396, “Discovery of Novel Acridane-Based Tubulin Polymerization Inhibitors with Anticancer and Potential Immunomodulatory Effects” (J Med Chem, 2023)
